From US20230107770A1, “METHOD OF ENHANCING IMMUNOTHERAPY USING ER STRESS PATHWAY INHIBITORS” (H. LEE MOFFITT CANCER CENTER AND RESEARCH INSTITUTE, INC., priority 2020, published 2023)

Assays:
human FSH-CER T cells = assay: Expansion of IL-2-supplemented human FSH-CER T cells with ER stress inhibitors; format: cell-based; conditions: treatment for 5 days
Experimental: The role of the PERK-Chop in the expansion of tumor TRM cells using conditional T cell Chop-null mice was evaluated. In agreement with the inhibitory effect of Chop in TRM development, higher frequency of TRM cells was detected in tumors from T cell-Chop^KO mice compared to controls (FIG. 23A). Next, we tested the effect of the inhibition of PERK (AMG-44) and IRE 1α (MKC8866) during the expansion of IL-2-supplemented human FSH-CER T cells. […] Also, we evaluated the therapeutic effect of the combination of ER stress-targeting therapy and FSH-CER. Thus, mice bearing FSHR+-ID8-Defb29/Vegfa ovarian tumors for 7 days received daily treatments with MKC8866 (i.p., 300 mg/kg) or AMG-44 (i.p. 12 mg/kg) for one-week, and i.p. transfer of FSH-CER T cells at days 7 and 14 post-tumor challenge. […] We postulate that treatments for longer time periods with ER stress inhibitors will further potentiate the effect of FSH-CER T cells

[1] = tested on: FSHR+-ID8-Defb29/Vegfa ovarian tumors; assay: ER stress-targeting therapy combined with FSH-CER T cells in ovarian tumor-bearing mice; format: in vivo; conditions: MKC8866 i.p. 300 mg/kg or AMG-44 i.p. 12 mg/kg daily for one week; FSH-CER T cells days 7 and 14
Experimental: The role of the PERK-Chop in the expansion of tumor TRM cells using conditional T cell Chop-null mice was evaluated. In agreement with the inhibitory effect of Chop in TRM development, higher frequency of TRM cells was detected in tumors from T cell-Chop^KO mice compared to controls (FIG. 23A). Next, we tested the effect of the inhibition of PERK (AMG-44) and IRE 1α (MKC8866) during the expansion of IL-2-supplemented human FSH-CER T cells. […] Also, we evaluated the therapeutic effect of the combination of ER stress-targeting therapy and FSH-CER. […]
Activation of the UPR in cancer cells mediates adaptation processes in the TME, whereas UPR priming in tumor-myeloid cells promotes their immunoregulatory activity. […] As main readouts of therapeutic efficacy, we will monitor tumor burden, overall survival, and tumor CER-T cell infiltration, persistence, and cytotoxic capacity (Exp. C.2.1.1). […] Additionally, we will sort DCs and MDSC from tumor sites and lymphoid organs to quantify the expression of ER stress gene markers, their ability to impair T cell proliferation and IFNγ production, and the levels of the UPR-related immunoinhibitory factors IL-6, PGE2, Cox-2, mPGES-1, and Arginase I. All required methods are established by our groups. […]

[2] = Blood glucose and pancreatic islets in B16-bearing mice; format: in vivo
Source text: Hematoxylin and Eosin (H&E) stained slides were scanned in an Aperio AT2 whole slide scanner (Leica Biosystems Inc.) equipped with a 20×0.7NA objective lens Images were created at 0.5 micron per pixel resolution and imported into Definiens Tissue Studio software v4.7 (Definiens AG) for analysis. Islets were found using a semi-automated segmentation process. First an automatic segmentation was applied to the image to create contour lines around objects within the image. Objects that contained islets were classified as such and remaining objects were classified as non-islet tissue. Next, adjacent objects of the same classification were merged together to clean up the segmentation. Segmented images were analyzed to provide the total area of islets Immunofluorescence for mouse insulin in pancreas tissue sections was performed as we described (Sultan et al., 2017). Labeled samples were scanned with a Zeiss Imager Z2 Upright FL microscope with a 10× objective lens using the tile scan function. Images were created at a
0.65 micron per pixel resolution and imported into the Definiens Tissue Studio software v4.7 (Definiens AG) for islet detection and analysis. Islets were detected using a semi-automated segmentation process. First, an automatic segmentation was applied to the image to detect the tissue. Then, the software was trained to detect islet vs. non-islet tissue within the image. In order to remove false detected islets caused by background staining, detected islets larger than 150,000 square microns and less than 600 square microns were reclassified to non-islet tissue. Segmented images were then analyzed to provide the fluorescent intensity of islets and total tissue area.

CD8+ TILs = assay: Flow cytometry of tumor-infiltrating CD8+ T cells from treated mice; format: in vivo
Experimental: All analysis was performed using FlowJo version 11 software.

murine BM-MDSC = assay: In vitro suppression assay with murine BM-MDSC; format: cell-based, mouse
Experimental: Mouse BM-MDSC were generated after culturing BM precursors with GM-CSF and G-CSF (20 ng/ml each) for 4 days. In vitro generated MDSC were treated with either LLC tumor explant supernatants (TES, since day 0) or Thaps (200 nM, for the last 24 hours of culture). Human BM-MDSC were developed after culturing BM or peripheral blood precursors from healthy donors with GM-CSF and IL-6 (10 ng/ml each) for a period of 6 days (Thevenot et al., 2014). To induce UPR activation, MDSC were treated with either supernatants from renal cell carcinoma cells 786-0 (hTES) for 6 days (Rodriguez et al., 2009) or Thaps during the last 24 hours before collection (200 nM). In some experiments, MDSC were pre-incubated for 3 hours with Resveratrol (100 μM, Sigma-Aldrich), D,L-Sulphoraphane (20 μM), AMG-44 (5 μM), or TUDCA (500 nM) before treating with Thaps.
Murine BM-MDSC (ratio 1:1/8) or tumor-MDSC (ratio 1:1/4) were co-cultured with negatively selected CD3^+ T cells in a 96 well plate bound α-CD3 and α-CD28 (1 μg/ml each, eBioscience) for 3 days. T cell proliferation was assessed with Carboxyfluorescein succinimidyl ester (CFSE) or Cell-trace violet (Invitrogen) dye dilution detected by flow cytometry. For human studies, MDSC were co-cultured with enriched CD3^+ T cells activated with soluble α-CD3 (1 μg/ml, clone OKT3) and α-CD28 (0.5 μg/ml, clone L293) for 3 days in a 96 well plate bound with goat anti-mouse IgG (10 μg/ml). Results are expressed as percentage of proliferating T cells, determined by the dilution of fluorescence compared with non-stimulated T cells.

Cc1ccc2cc(-c3c(C)ccc(C(=O)c4c(-c5ccccc5)n(C)n(-c5ccccc5)c4=O)c3N)ccc2n1 [AMG-44]
frequency of FSH-CER TRM cells (human FSH-CER T cells): Higher frequency of FSH-CER TRM cells | survival of hosts receiving FSH-CER T cells plus inhibitor [1]: Prolonged survival | blood glucose levels ([2]; AMG-44 12 and 24 mg/kg): without alterations | insulin expression in the pancreatic islets ([2]; AMG-44 12 and 24 mg/kg): without alterations | size of the pancreatic islets ([2]; AMG-44 12 and 24 mg/kg): without alterations | glucose levels in the serum ([2]; B16-bearing mice treated for a week, GSK2606414 25 mg/kg or AMG-44 12 mg/kg, day 17): failed to show alterations in glucose levels | tumor-infiltrating CD8+ T cells expressing IFNγ (CD8+ TILs; B16-bearing mice, AMG-44 12 mg/kg): induced expansion | frequency of IFNγ-producing CD8+ T cells in tumors (CD8+ TILs; B16, GSK2606414 25 mg/kg or AMG-44 12 mg/kg, 17 days post-tumor injection): amplified the frequency of IFNγ-producing CD8^+ T cells in tumors | ability of Thaps-treated BM-MDSC to impair T cell proliferation (murine BM-MDSC; BM-MDSC (1:1/8) exposed 3 hours to 5 μM AMG-44): overcame the ability of Thaps-treated BM-MDSC to impair T cell proliferation | MDSC-baseline activity (murine BM-MDSC; control BM-MDSC exposed 3 hours to 5 μM AMG-44): without affecting MDSC-baseline activity
